Data reported in PubChem BioAssay AID1963826 (Molecular Pharmacology Branch, DTP, NCI, 2024).

Test system: 926638-142-R-J1-PDC complex spheroid viability
Experiment: Anticancer human tumor 926638-142-R-J1-PDC patient-derived endometrial carcinoma cell line growth inhibition [POLQ]
Details: for IC50: curve of first compound; for viability, T/C: stronger effect = lower value
Protocol: Multicellular complex tumor spheroid response to Polymerase (POL) inhibitors (novobiocin, ART-558, RP6685) in combination with a variety of drugs and investigational agents in selected tumor cell lines
The POL inhibitors (novobiocin, ART-558, and RP6685) were evaluated both individually and in combination with standard of care and investigational anticancer small molecules within a complex spheroid model of solid tumors. . Complex spheroids include a stromal component modeled by human endothelial cells (HUVEC) and fibroblasts modeled by human mesenchymal stem cells (MSCs). The concentration ranges selected for each drug and investigational agent were based upon clinically achievable concentrations if the clinical Cmax of the agent was known.
Compounds. The drugs and investigational agents: novobiocin (NSC847541), ART-558 (NSC835418), RP-6685 (NSC848927), peposertib (NSC802822), ceralasertib (NSC780249), elimusertib (NSC800525), camonsertib (NSC841442), AZD-1390 (NSC803789), olaparib (NSC753686), talazoparib (NSC767125), rucaparib (NSC756644), sotorasib (NSC818433), MRTX-1133 (NSC836407), SN-38 (NSC673596), topotecan (NSC609699), epotoside (NSC141540), doxorubicin (NSC123127), gemcitabine (NSC613327), 5-fluorouracil (NSC19893), paclitaxel (NSC125973), vemurafenib (NSC761431), MSA-2 (NSC828583), SN-011 (NSC837082), adavosertib (NSC754352), prexasertib (NSC758257), carboplatin (NSC241240) and oxaliplatin (NSC266046), were obtained from the National Cancer Institute (NCI) Developmental Therapeutics Program Chemical Repository (21). The FDA-approved anticancer drug set is available from the Developmental Therapeutics Program at https://dtp.cancer.gov/organization/dscb/obtaining/. […] The stock solutions were prepared in dimethyl sulfoxide (DMSO, Sigma-Aldrich, St. Louis, MO, cat. D2650), except for the platinum compounds which were prepared in saline (Quality Biological, Gaithersburg, MD, cat. 114-055-101), at 800-fold the tested concentration and stored at -70 degrees C prior to their use. All drugs and investigational agents were tested over a range starting from a high concentration at or near the clinical Cmax and decreasing in half-log increments. If the clinical Cmax for an agent had not been determined, the highest concentration tested was 10 microM, except for SN-38, which was tested at a high concentration of 1 microM.
Cell Culture. All cells were maintained in an incubator at 37 degrees C and 5% CO2 with 95% humidity. The PDC lines were cultured according to standard operating procedures established by the NCI PDMR (https://pdmr.cancer.gov). Table 3 of the manuscript, lists the cell lines along with the number of the three cell types plated to form the mct-spheroids and media for tumor cell growth. After thawing, all PDC lines, except 997537-175-T-J1-PDC and 415267-285-R-J2-PDC, were cultured in Matrigel-coated flasks prepared with a working solution of 1X Ham's F-12 nutrient mix, without supplementation (Thermo Fisher Scientific, cat. 11765054), 100 U/mL penicillin-streptomycin (Thermo Fisher Scientific, cat. 15140122), and 2.5% Matrigel (Corning Inc., Corning, NY, cat. 354248) for the first three passages. The two PDC lines 997537-175-T-J1-PDC and 415267-285-R-J2-PDC were cultured on uncoated flasks. The 857933-349-R-J2-PDC line was cultured in 6C/Colon 1B media containing advanced DMEM/F-12 (Thermo Fisher Scientific, cat. 12634028), 10 mM HEPES (Thermo Fisher Scientific, cat. 15630080), 1X GlutaMAX supplement (Thermo Fisher Scientific, cat. 35050061), 0.1 mg/mL primocin (InvivoGen, San Diego, CA, cat. ant-pm-2), 10% defined fetal bovine serum, heat inactivated (HyClone Laboratories Inc., Logan, UT, cat. SH30070.03HI), 50% L-WRN conditioned media (ATCC, cat. CRL-3276), 1.25 mM N-Acetyl-L-cysteine (Sigma-Aldrich, cat. A9165), 10 mM nicotinamide (Sigma-Aldrich, cat. N0636), 1X B-27 supplement (Thermo Fisher Scientific, cat. 17504044), 1X N-2 supplement (Thermo Fisher Scientific, cat. […]

[1] = second compound 0.0316 µM, first compound 0.0316 µM
[2] = second compound 0.0316 µM, first compound 0.1 µM
[3] = second compound 0.0316 µM, first compound 0.316 µM
[4] = second compound 0.0316 µM, first compound 1 µM
[5] = second compound 0.0316 µM, first compound 3.16 µM
[6] = second compound 0.0316 µM, first compound 10 µM
[7] = second compound 0.1 µM, first compound 0.0316 µM
[8] = second compound 0.1 µM, first compound 0.1 µM
[9] = second compound 0.1 µM, first compound 0.316 µM
[10] = second compound 0.1 µM, first compound 1 µM
[11] = second compound 0.1 µM, first compound 3.16 µM
[12] = second compound 0.1 µM, first compound 10 µM
[13] = second compound 0.316 µM, first compound 0.0316 µM
[14] = second compound 0.316 µM, first compound 0.1 µM
[15] = second compound 0.316 µM, first compound 0.316 µM
[16] = second compound 0.316 µM, first compound 1 µM
[17] = second compound 0.316 µM, first compound 3.16 µM
[18] = second compound 0.316 µM, first compound 10 µM
[19] = second compound 1 µM, first compound 0.0316 µM
[20] = second compound 1 µM, first compound 0.1 µM
[21] = second compound 1 µM, first compound 0.316 µM
[22] = second compound 1 µM, first compound 1 µM
[23] = second compound 1 µM, first compound 3.16 µM
[24] = second compound 1 µM, first compound 10 µM
[25] = second compound 3.16 µM, first compound 0.0316 µM
[26] = second compound 3.16 µM, first compound 0.1 µM
[27] = second compound 3.16 µM, first compound 0.316 µM
[28] = second compound 3.16 µM, first compound 1 µM
[29] = second compound 3.16 µM, first compound 3.16 µM
[30] = second compound 3.16 µM, first compound 10 µM
[31] = second compound 10 µM, first compound 0.0316 µM
[32] = second compound 10 µM, first compound 0.1 µM
[33] = second compound 10 µM, first compound 0.316 µM
[34] = second compound 10 µM, first compound 1 µM
[35] = second compound 10 µM, first compound 3.16 µM
[36] = second compound 10 µM, first compound 10 µM
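Also: spheroids exposed to drugs for one week before readout.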
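For viability, T/C in this document: percent viability relative to DMSO vehicle control wells set as 100%.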

COc1cc(C2c3cc4c(cc3C(OC3OC5COC(C)OC5C(O)C3O)C3COC(=O)C23)OCO4)cc(OC)c1O (centres undefined) + COC1C(OC(N)=O)C(O)C(Oc2ccc3c(O)c(NC(=O)c4ccc(O)c(CC=C(C)C)c4)c(=O)oc3c2C)OC1(C)C
IC50 (second compound 0.0316 µM): > 10 µM
IC50 (second compound 0.1 µM): > 10 µM
IC50 (second compound 0.316 µM): > 10 µM
IC50 (second compound 1 µM): > 10 µM
IC50 (second compound 3.16 µM): > 10 µM
IC50 (second compound 10 µM): > 10 µM
viability, T/C [1]: 86.8%
viability, T/C [2]: 79%
viability, T/C [3]: 78.1%
viability, T/C [4]: 78.4%
viability, T/C [5]: 70.1%
viability, T/C [6]: 56.2%
viability, T/C [7]: 95%
viability, T/C [8]: 80.6%
viability, T/C [9]: 83.1%
viability, T/C [10]: 62.7%
viability, T/C [11]: 57.5%
viability, T/C [12]: 57.7%
viability, T/C [13]: 88.2%
viability, T/C [14]: 98.7%
viability, T/C [15]: 75.7%
viability, T/C [16]: 79.3%
viability, T/C [17]: 66%
viability, T/C [18]: 64.6%
viability, T/C [19]: 84.1%
viability, T/C [20]: 85.8%
viability, T/C [21]: 79%
viability, T/C [22]: 61.6%
viability, T/C [23]: 70.9%
viability, T/C [24]: 55.6%
viability, T/C [25]: 82%
viability, T/C [26]: 88.4%
viability, T/C [27]: 83.2%
viability, T/C [28]: 80.2%
viability, T/C [29]: 71.2%
viability, T/C [30]: 60.9%
viability, T/C [31]: 81.8%
viability, T/C [32]: 75.3%
viability, T/C [33]: 78.1%
viability, T/C [34]: 74.9%
viability, T/C [35]: 68.8%
viability, T/C [36]: 55%

COc1cccc2c1C(=O)c1c(O)c3c(c(O)c1C2=O)CC(O)(C(=O)CO)CC3OC1CC(N)C(O)C(C)O1 (centres undefined) + COC1C(OC(N)=O)C(O)C(Oc2ccc3c(O)c(NC(=O)c4ccc(O)c(CC=C(C)C)c4)c(=O)oc3c2C)OC1(C)C
IC50 (second compound 0.0316 µM): 0.0941 µM
IC50 (second compound 0.1 µM): 0.167 µM
IC50 (second compound 0.316 µM): 0.129 µM
IC50 (second compound 1 µM): 0.128 µM
IC50 (second compound 3.16 µM): 0.133 µM
IC50 (second compound 10 µM): 0.154 µM
viability, T/C [1]: 73.2%
viability, T/C [2]: 48.3%
viability, T/C [3]: 17.7%
viability, T/C [4]: 1.39%
viability, T/C [5]: 0.18%
viability, T/C [6]: 0.28%
viability, T/C [7]: 81%
viability, T/C [8]: 74.1%
viability, T/C [9]: 19.9%
viability, T/C [10]: 3.56%
viability, T/C [11]: 0.18%
viability, T/C [12]: 0.25%
viability, T/C [13]: 81.6%
viability, T/C [14]: 59.9%
viability, T/C [15]: 15.9%
viability, T/C [16]: 1.61%
viability, T/C [17]: 0.22%
viability, T/C [18]: 0.17%
viability, T/C [19]: 72.9%
viability, T/C [20]: 59.8%
viability, T/C [21]: 14%
viability, T/C [22]: 2.68%
viability, T/C [23]: 0.17%
viability, T/C [24]: 0.21%
viability, T/C [25]: 74.3%
viability, T/C [26]: 61.1%
viability, T/C [27]: 16.2%
viability, T/C [28]: 3.97%
viability, T/C [29]: 0.21%
viability, T/C [30]: 0.21%
viability, T/C [31]: 90.7%
viability, T/C [32]: 69%
viability, T/C [33]: 18%
viability, T/C [34]: 2.23%
viability, T/C [35]: 0.25%
viability, T/C [36]: 0.26%
